Measurements: US20230019280A1, “SUBSTITUTED ISOINDOLONYL 2,2'-BIP[…], ANALOGUES THEREOF, AND METHODS USING SAME” (priority 2019, published 2023)

Each compound was assayed on HBsAg (assay: HBsAg assay (inhibition of HBsAg in HepG2.2.15 cells)). Conditions: Hepatitis B virus, HepG2.2.15, 144 h, read-out: sAg EC50, HepG2.2.15 cells; supernatant HBsAg by CLIA at day 6 after exposure of compounds.
Format: cell-based, hepatitis B virus
Procedure: Inhibition of HBsAg was determined in HepG2.2.15 cells. Cells were maintained in culture medium containing 10% fetal calf serum, […], Glutamine, penicillin/streptomycin. Cells were seeded in 96-well collagen-coated plate at a density of 30,000 cells/well. Serially diluted compounds were added to cells next day at the final DMSO concentration of 0.5%. Cells were incubated with compounds for 2-3 days, after which medium was removed. Fresh medium containing compounds was added to cells for additional 3-4 days. At day 6 after exposure of compounds, supernatant was collected, the HBsAg immunoassay (microplate-based chemiluminescence immunoassay kits, CLIA, Autobio Diagnosics Co., Zhengzhou, China, Catalog #CL0310-2) was used to determine the level of HBsAg according to manufactory instruction. Dose-response curves were generated and the EC50 value (effective concentrations that achieved 50% inhibitory effect) were determined using XLfit software. In addition, cells were seeded at a density of 5,000 cells/well for determination of cell viability in the presence and absence of compounds by using CellTiter-Glo reagent (Promega).

Row | SMILES | EC50 [nM]
1 | CCC1c2cc(OC)c(OC)cc2C(=O)N1c1ccnc(-c2ncccn2)n1 (stereo not drawn) [Example 1, 2-([2,2′-Bipyrimidin]-4-yl)-3-ethyl-5,6-dimethoxyisoindolin-1-one] | 27
2 | CCC1c2cc(OC)c(OC)cc2C(=O)N1c1cccc(-c2ncccn2)n1 (stereo not drawn) [Example 31, 3-Ethyl-5,6-dimethoxy-2-(6-(pyrimidin-2-yl)pyridin-2-yl)isoindolin-1-one] | 7000
3 | CCOc1cc2c(cc1F)C(CC)N(c1nc(-c3ncccn3)ncc1F)C2=O (single isomer, unassigned) [Example 56, 6-Ethoxy-3-ethyl-5-fluoro-2-(5-fluoro-[2,2′-bipyrimidin]-4-yl)isoindolin-1-one] | 70
4 | COc1cc2c(cc1F)C1(CC1)N(c1ccnc(-c3ncccn3)n1)C2=O [Example 47, 2′-([2,2′-Bipyrimidin]-4-yl)-6′-fluoro-5′-methoxyspiro[cyclopropane-1,1′-isoindolin]-3′-one] | 120
5 | COc1cc2c(cc1OC)C(CC(C)C)N(c1ccnc(-c3ncccn3)n1)C2=O (stereo not drawn) [Example 39, 2-([2,2′-Bipyrimidin]-4-yl)-3-isobutyl-5,6-dimethoxyisoindolin-1-one] | 2
6 | COc1cc2c(cc1OC)C(c1sccc1C)N(c1ccnc(-c3ncccn3)n1)C2=O (stereo not drawn) [Example 27, 2-([2,2′-Bipyrimidin]-4-yl)-5,6-dimethoxy-3-(3-methylthiophen-2-yl)isoindo-lin-1-one] | 1
7 | CCC1c2cc(OC)c(OC)cc2C(=O)N1c1cc(-c2ncccn2)ncn1 (stereo not drawn) [Example 37, 2-([2,4′-Bipyrimidin]-6′-yl)-3-ethyl-5,6-dimethoxyisoindolin-1-one] | 290
8 | COc1cc2c(cc1OC)C1(CC1)N(c1ccnc(-c3ncccn3)n1)C2=O [Example 46, 2′-([2,2′-Bipyrimidin]-4-yl)-5′,6′-dimethoxyspiro[cyclopropane-1,1′-isoindolin]-3′-one] | 240
9 | CCC1c2cc(OC)c(OC)cc2C(=O)N1c1nc(-c2ncccn2)nc(C)c1C (stereo not drawn) [Example 24, 2-(5,6-Dimethyl-[2,2′-bipyrimidin]-4-yl)-3-ethyl-5,6-dimethoxyisoindolin-1-one] | 10000
10 | CCC1c2cc(OC)c(OC)cc2C(=O)N1c1cncc(-c2ncccn2)n1 (stereo not drawn) [Example 35, 3-Ethyl-5,6-dimethoxy-2-(6-(pyrimidin-2-yl)pyrazin-2-yl)isoindolin-1-one] | 1000
11 | CCC1c2cc(OC)c(OC)cc2C(=O)N1c1ccnc(-c2ncccn2)c1 (stereo not drawn) [Example 32, 3-Ethyl-5,6-dimethoxy-2-(2-(pyrimidin-2-yl)pyridin-4-yl)isoindolin-1-one] | 20
12 | CCC1c2cc(F)c(OC)cc2C(=O)N1c1nc(-c2ncccn2)ncc1OC (stereo not drawn) [Example 25, 3-Ethyl-5-fluoro-6-methoxy-2-(5-methoxy-[2,2′-bipyrimidin]-4-yl)isoindolin-1-one] | 10000
13 | COc1cc2c(cc1OC)C(c1ccccc1)N(c1ccnc(-c3ncccn3)n1)C2=O (stereo not drawn) [Example 42, 2-([2,2′-Bipyrimidin]-4-yl)-5,6-dimethoxy-3-phenylisoindolin-1-one] | 1
14 | CCCC1c2cc(F)c(OC)cc2C(=O)N1c1nc(-c2ncccn2)ncc1F (single isomer, unassigned) [Example 58, 5-Fluoro-2-(5-fluoro-[2,2′-bipyrimidin]-4-yl)-6-methoxy-3-propylisoindolin-1-one] | 20
15 | COc1cc2c(cc1OC)C(C1CCC1)N(c1ccnc(-c3ncccn3)n1)C2=O (stereo not drawn) [Example 28, 2-([2,2′-Bipyrimidin]-4-yl)-3-cyclobutyl-5,6-dimethoxyisoindolin-1-one] | 2
16 | COc1cc2c(cc1OC)C(c1ccc3c(c1)OCCO3)N(c1ccnc(-c3ncccn3)n1)C2=O (stereo not drawn) [Example 26, 2-([2,2′-Bipyrimidin]-4-yl)-3-(2,3-dihydrobenzo[b][1,4]dioxin-6-yl)-5,6-dimethoxyisoindolin-1-one] | 18

Same assay, conditions: read-out: sAg EC50; HepG2.2.15 cells; supernatant HBsAg by CLIA at day 6 after exposure of compounds

Row | SMILES | EC50 [nM]
17 | CCC1c2cc(Cl)cc(F)c2C(=O)N1c1ccnc(-c2ncccn2)n1 (single isomer, unassigned) [Example 21, 2-([2,2′-Bipyrimidin]-4-yl)-5-chloro-3-ethyl-7-fluoroisoindolin-1-one] | 25000
18 | CCC1c2cc(OC)c(F)cc2C(=O)N1c1ccnc(-c2ncccn2)n1 (single isomer, unassigned) [Example 52, 2-([2,2′-Bipyrimidin]-4-yl)-3-ethyl-6-fluoro-5-methoxyisoindolin-1-one] | 400
19 | COc1cc2c(cc1OC)C(CC(C)C)N(c1ccnc(-c3ncccn3)n1)C2=O (single isomer, unassigned) [Example 41, 2-([2,2′-Bipyrimidin]-4-yl)-3-isobutyl-5,6-dimethoxyisoindolin-1-one] | 1000
20 | COc1cc2c(cc1OC)C(Cc1ccccc1)N(c1ccnc(-c3ncccn3)n1)C2=O (single isomer, unassigned) [Example 14, 2-([2,2′-Bipyrimidin]-4-yl)-3-benzyl-5,6-dimethoxyisoindolin-1-one] | 100
21 | COc1cc2c(cc1OC)C(CCC(F)(F)F)N(c1ccnc(-c3ncccn3)n1)C2=O (single isomer, unassigned) [Example 16, 2-([2,2′-Bipyrimidin]-4-yl)-5,6-dimethoxy-3-(3,3,3-trifluoropropyl)isoindolin-1-one] | 30000
22 | COCCC1c2cc(F)c(OC)cc2C(=O)N1c1ccnc(-c2ncccn2)n1 (single isomer, unassigned) [Example 54, 2-([2,2′-Bipyrimidin]-4-yl)-5-fluoro-6-methoxy-3-(2-methoxyethyl)isoindolin-1-one] | 430
23 | COc1cc2c(cc1OC)C(CCC(F)(F)F)N(c1ccnc(-c3ncccn3)n1)C2=O (single isomer, unassigned) [Example 17, 2-([2,2′-Bipyrimidin]-4-yl)-5,6-dimethoxy-3-(3,3,3-trifluoropropyl)isoindolin-1-one] | 20
24 | CCC1c2cc(F)c(OC)cc2C(=O)N1c1nc(-c2ncccn2)ncc1F (single isomer, unassigned) [Example 74, 3-Ethyl-5-fluoro-2-(5-fluoro-[2,2′-bipyrimidin]-4-yl)-6-methoxyisoindolin-1-one] | 300
25 | COc1cc2c(cc1OC)C(c1ccccn1)N(c1ccnc(-c3ncccn3)n1)C2=O (single isomer, unassigned) [Example 22, 2-([2,2′-Bipyrimidin]-4-yl)-5,6-dimethoxy-3-(pyridin-2-yl)isoindolin-1-one] | 4
26 | CCC1c2cc(OC)c(OC)cc2C(=O)N1c1nc(-c2ncccn2)ncc1F (single isomer, unassigned) [Example 66, 3-Ethyl-2-(5-fluoro-[2,2′-bipyrimidin]-4-yl)-5,6-dimethoxyisoindolin-1-one] | 34
27 | COc1cc2c(cc1OC)C(c1ccc(C)nc1)N(c1ccnc(-c3ncccn3)n1)C2=O (single isomer, unassigned) [Example 18, 2-([2,2′-Bipyrimidin]-4-yl)-5,6-dimethoxy-3-(6-methylpyridin-3-yl)isoindolin-1-one] | 10
28 | COc1cc2c(cc1OC)C(c1ccc(C)nc1)N(c1ccnc(-c3ncccn3)n1)C2=O (single isomer, unassigned) [Example 19, 2-([2,2′-Bipyrimidin]-4-yl)-5,6-dimethoxy-3-(6-methylpyridin-3-yl)isoindolin-1-one] | 390
29 | CCC1c2cc(OC)c(Cl)cc2C(=O)N1c1ccnc(-c2ncccn2)n1 (single isomer, unassigned) [Example 6, 2-([2,2′-Bipyrimidin]-4-yl)-6-chloro-3-ethyl-5-methoxyisoindolin-1-one] | 14
30 | CCC1c2cc(OC)c(OC)cc2C(=O)N1c1cc(F)nc(-c2ncccn2)n1 (single isomer, unassigned) [Example 68, 3-Ethyl-2-(6-fluoro-[2,2′-bipyrimidin]-4-yl)-5,6-dimethoxyisoindolin-1-one] | 1000
31 | CCC1c2cc(OC)c(OC)cc2C(=O)N1c1nc(-c2ncccn2)ncc1F (single isomer, unassigned) [Example 67, 3-Ethyl-2-(5-fluoro-[2,2′-bipyrimidin]-4-yl)-5,6-dimethoxyisoindolin-1-one] | 10000
32 | CCC1c2cc(F)c(OC)cc2C(=O)N1c1ccnc(-c2ncccn2)n1 (single isomer, unassigned) [Example 50, 3-Ethyl-5-fluoro-6-methoxy-2-(2-pyrimidin-2-ylpyrimidin-4-yl)isoindolin-1-one] | 480
33 | CCC1c2cc(F)c(OC)cc2C(=O)N1c1nc(-c2ncccn2)ncc1F (single isomer, unassigned) [Example 55, 3-Ethyl-5-fluoro-2-(5-fluoro-2-pyrimidin-2-yl-pyrimidin-4-yl)-6-methoxy-isoindolin-1-one] | 50
34 | COc1cc2c(cc1OC)C(c1ccccc1)N(c1ccnc(-c3ncccn3)n1)C2=O (single isomer, unassigned) [Example 43, 2-([2,2′-Bipyrimidin]-4-yl)-5,6-dimethoxy-3-phenylisoindolin-1-one] | 1
35 | COc1cc2c(cc1OC)C(CC(C)C)N(c1ccnc(-c3ncccn3)n1)C2=O (single isomer, unassigned) [Example 40, 2-([2,2′-bipyrimidin]-4-yl)-3-isobutyl-5,6-dimethoxyisoindolin-1-one] | 10
36 | CCC1c2cc(F)c(OC)cc2C(=O)N1c1ccnc(-c2ncccn2)n1 (single isomer, unassigned) [Example 49, 3-Ethyl-5-fluoro-6-methoxy-2-(2-pyrimidin-2-ylpyrimidin-4-yl)isoindolin-1-one] | 10
